Structures can show the parent of a compound that is named as a salt.
Molecular target: T1, Human RET kinase cytoplasmic domain (Homo sapiens, UniProt P07949)
T1 construct: made in house
T1 sequence (P07949 658-1114): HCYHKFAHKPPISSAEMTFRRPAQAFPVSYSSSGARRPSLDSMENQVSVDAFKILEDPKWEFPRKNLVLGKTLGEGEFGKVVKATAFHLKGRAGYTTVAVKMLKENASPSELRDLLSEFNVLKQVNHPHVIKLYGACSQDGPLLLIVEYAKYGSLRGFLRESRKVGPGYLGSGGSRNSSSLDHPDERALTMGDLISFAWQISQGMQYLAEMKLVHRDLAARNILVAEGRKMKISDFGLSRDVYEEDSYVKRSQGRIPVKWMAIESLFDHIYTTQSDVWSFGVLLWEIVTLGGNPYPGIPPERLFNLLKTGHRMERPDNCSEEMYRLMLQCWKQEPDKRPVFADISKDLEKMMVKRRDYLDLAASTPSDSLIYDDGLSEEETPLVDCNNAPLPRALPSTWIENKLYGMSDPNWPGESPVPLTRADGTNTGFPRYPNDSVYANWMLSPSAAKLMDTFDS
Test: RET kinase enzymatic assay
Assay type: biochemical
Experimental: GST-RET was purified using glutathione sepharose chromatography. The RET kinase enzymatic assay was performed in a total volume of 10 uL with increasing concentrations of RET kinase inhibitor as a singlet in a 384 well format as follows: RET inhibitor compound plates are prepared by adding 100 nL of RET inhibitor at different concentrations to a 384-well plate. 5 μL/well of a 2× enzyme mix (50 mM HEPES (4-(2-hydroxyethyl)-1-piperazineethanesulfonic acid); 1 mM CHAPS (3-[(3-cholamidopropyl)dimethylammonio]-1-propanesulfonate); 0.1 mg/mL BSA (bovine serum albumin); 1 mM DTT (dithiothreitol); 0.2 nM RET kinase) was added to the 384-well plate and incubated for 30 minutes at 23° C. 5 µL/well of a 2× substrate mix (50 mM HEPES; 1 mM CHAPS; 0.1 mg/mL BSA; 20 μM adenosine triphosphate; 20 mM MgCl2 and 1 μM biotinylated peptide substrate) was added and incubated for 1 hour at 23° C. […] IC50s were fitted using GraphPad Prism to a sigmoidal dose response.

Row | SMILES | IC50
1 | CCOc1cc(Oc2ccc(NC(=O)Nc3ccc(OC4(C)COC4)c(C(F)(F)F)c3)cc2)c[nH]c1=O [Example 49, 1-(4-((5-Ethoxy-6-oxo-1,6-dihydropyridin-3-yl)oxy)phenyl)-3-(4-((3-methyloxetan-3-yl)oxy)-3-(trifluoromethyl)phenyl)urea] | < 0.1 µM
2 | CCOc1cc(-c2ccc(NC(=O)Nc3ccc(OC4(C)COC4)c(C(F)(F)F)c3)c(C)n2)c[nH]c1=O [Example 50, 1-(5′-Ethoxy-6-methyl-6′-oxo-1′,6′-dihydro-[2,3′-bipyridin]-5-yl)-3-(4-((3-methyloxetan-3-yl)oxy)-3-(trifluoromethyl)phenyl)urea hydrochloride] | < 0.1 µM
3 | CCOc1cc(=O)[nH]cc1-c1ncc(NC(=O)Nc2ccc(C(C)(C)O)c(C(F)(F)F)c2)c(C)n1 [Example 51, 1-(2-(4-Ethoxy-6-oxo-1,6-dihydropyridin-3-yl)-4-methylpyrimidin-5-yl)-3-(4-(2-hydroxypropan-2-yl)-3-(trifluoromethyl)phenyl)urea] | < 0.1 µM
4 | CCOc1cc(=O)[nH]cc1-c1ncc(NC(=O)Nc2cc(-n3cnc(C)c3)cc(C(F)(F)F)c2)c(C)n1 [Example 52, 1-(2-(4-Ethoxy-6-oxo-1,6-dihydropyridin-3-yl)-4-methylpyrimidin-5-yl)-3-(3-(4-methyl-1H-imidazol-1-yl)-5-(trifluoromethyl)phenyl)urea] | < 0.1 µM
5 | CCOc1cc(-c2nc(C)c(NC(=O)Nc3cc(-n4cnc(C)c4)cc(C(F)(F)F)c3)c(C)n2)c[nH]c1=O [Example 53, 1-(2-(5-Ethoxy-6-oxo-1,6-dihydropyridin-3-yl)-4,6-dimethylpyrimidin-5-yl)-3-(3-(4-methyl-1H-imidazol-1-yl)-5-(trifluoromethyl)phenyl)urea] | < 0.1 µM
6 | CCOc1cc(=O)[nH]cc1-c1ncc(NC(=O)Nc2ccc(Cl)c(C(F)(F)F)c2)c(C)n1 [Example 54, 1-(4-Chloro-3-(trifluoromethyl)phenyl)-3-(2-(4-ethoxy-6-oxo-1,6-dihydropyridin-3-yl)-4-methylpyrimidin-5-yl)urea] | < 0.1 µM
7 | CCOc1cc(=O)[nH]cc1-c1ncc(NC(=O)Nc2ccc(CN(C)C)c(C(F)(F)F)c2)c(C)n1 [Example 55, 1-(4-((Dimethylamino)methyl)-3-(trifluoromethyl)phenyl)-3-(2-(4-ethoxy-6-oxo-1,6-dihydropyridin-3-yl)-4-methylpyrimidin-5-yl)urea] | < 0.1 µM
8 | CCOc1cc(-c2ncc(NC(=O)Nc3cc(-n4cnc(C)c4)cc(C(F)(F)F)c3)c(CC)n2)c[nH]c1=O [Example 56, 1-(2-(5-Ethoxy-6-oxo-1,6-dihydropyridin-3-yl)-4-ethylpyrimidin-5-yl)-3-(3-(4-methyl-1H-imidazol-1-yl)-5-(trifluoromethyl)phenyl)urea] | < 0.1 µM
9 | CCOc1cc(-c2ncc(NC(=O)Nc3cc(-n4cnc(C)c4)cc(C(F)(F)F)c3)c(C)n2)c[nH]c1=O [Example 57, 1-(2-(5-Ethoxy-6-oxo-1,6-dihydropyridin-3-yl)-4-methylpyrimidin-5-yl)-3-(3-(4-methyl-1H-imidazol-1-yl)-5-(trifluoromethyl)phenyl)urea] | < 0.1 µM
10 | CCOc1cc(-c2ncc(NC(=O)Nc3ccc(CN(C)C)c(C(F)(F)F)c3)c(C)n2)c[nH]c1=O [Example 58, 1-(4-((Dimethylamino)methyl)-3-(trifluoromethyl)phenyl)-3-(2-(5-ethoxy-6-oxo-1,6-dihydropyridin-3-yl)-4-methylpyrimidin-5-yl)urea] | < 0.1 µM
11 | CCOc1cc(-c2nc(C)c(NC(=O)Nc3ccc(CN(C)C)c(C(F)(F)F)c3)c(C)n2)c[nH]c1=O [Example 59, 1-(4-((Dimethylamino)methyl)-3-(trifluoromethyl)phenyl)-3-(2-(5-ethoxy-6-oxo-1,6-dihydropyridin-3-yl)-4,6-dimethylpyrimidin-5-yl)urea] | < 0.1 µM
12 | CCOc1cc(-c2ncc(NC(=O)Nc3ccc(Cl)c(C(F)(F)F)c3)c(C)n2)c[nH]c1=O [Example 60, 1-(4-Chloro-3-(trifluoromethyl)phenyl)-3-(2-(5-ethoxy-6-oxo-1,6-dihydropyridin-3-yl)-4-methylpyrimidin-5-yl)urea] | < 0.1 µM
13 | CCOc1cc(=O)[nH]cc1-c1ncc(NC(=O)Nc2ccc(C(C)(C)C(N)=O)c(C(F)(F)F)c2)c(C)n1 [Example 61, 2-(4-(3-(2-(4-Ethoxy-6-oxo-1,6-dihydropyridin-3-yl)-4-methylpyrimidin-5-yl)ureido)-2-(trifluoromethyl)phenyl)-2-methylpropanamide] | < 0.1 µM
14 | CCOc1cc(-c2cnc(NC(=O)Nc3ccc(OC4(C)COC4)c(C(F)(F)F)c3)cc2C)c[nH]c1=O [Example 62, 1-(5′-Ethoxy-4-methyl-6′-oxo-1′,6′-dihydro-[3,3′-bipyridin]-6-yl)-3-(4-((3-methyloxetan-3-yl)oxy)-3-(trifluoromethyl)phenyl)urea] | < 0.1 µM
15 | CCOc1cc(-c2ncc(NC(=O)Nc3ccc(C(C)(C)C(N)=O)c(C(F)(F)F)c3)c(C)n2)c[nH]c1=O [Example 63, 2-(4-(3-(2-(5-Ethoxy-6-oxo-1,6-dihydropyridin-3-yl)-4-methylpyrimidin-5-yl)ureido)-2-(trifluoromethyl)phenyl)-2-methylpropanamide] | < 0.1 µM
16 | CCOc1cc(-c2ccc(NC(=O)Nc3ccc(CC(C)(C)CO)c(C(F)(F)F)c3)c(F)c2)c[nH]c1=O [Example 64, 1-(4-(5-Ethoxy-6-oxo-1,6-dihydropyridin-3-yl)-2-fluorophenyl)-3-(4-(3-hydroxy-2,2-dimethylpropyl)-3-(trifluoromethyl)phenyl)urea] | < 0.1 µM
17 | CCOc1cc(-c2ncc(NC(=O)Nc3ccc(C4(CO)CC4)c(C(F)(F)F)c3)c(C)n2)c[nH]c1=O [Example 66, 1-(2-(5-Ethoxy-6-oxo-1,6-dihydropyridin-3-yl)-4-methylpyrimidin-5-yl)-3-(4-(1-(hydroxymethyl)cyclopropyl)-3-(trifluoromethyl)phenyl)urea hydrochloride] | < 0.1 µM
18 | CCOc1cc(=O)[nH]cc1-c1ncc(NC(=O)Nc2cc(-c3nnc(C)o3)cc(C(F)(F)F)c2)c(C)n1 [Example 67, 1-(2-(4-Ethoxy-6-oxo-1,6-dihydropyridin-3-yl)-4-methylpyrimidin-5-yl)-3-(3-(5-methyl-1,3,4-oxadiazol-2-yl)-5-(trifluoromethyl)phenyl)urea] | < 0.1 µM
19 | CC(C)(C)c1cc(NC(=O)Nc2ccc(-c3ccc(=O)[nH]c3)cc2)n(-c2ccccc2)n1 [Example 68, 1-(3-(tert-Butyl)-1-phenyl-1H-pyrazol-5-yl)-3-(4-(6-oxo-1,6-dihydropyridin-3-yl)phenyl)urea] | < 0.1 µM
20 | CCOc1cc(-c2ncc(NC(=O)Nc3ccc(C(C)(C)CN)c(C(F)(F)F)c3)c(C)n2)c[nH]c1=O [Example 70, 1-(4-(1-Amino-2-methylpropan-2-yl)-3-(trifluoromethyl)phenyl)-3-(2-(5-ethoxy-6-oxo-1,6-dihydropyridin-3-yl)-4-methylpyrimidin-5-yl)urea dihydrochloride] | < 0.1 µM
21 | CCOc1cc(-c2ncc(NC(=O)Nc3ccc(C(C)(C)O)c(C(F)(F)F)c3)c(C)n2)c[nH]c1=O [Example 71, 1-(2-(5-Ethoxy-6-oxo-1,6-dihydropyridin-3-yl)-4-methylpyrimidin-5-yl)-3-(4-(2-hydroxypropan-2-yl)-3-(trifluoromethyl)phenyl)urea] | < 0.1 µM
22 | CCOc1cc(-c2ccc(NC(=O)Nc3cc(-n4cncn4)cc(C(F)(F)F)c3)c(F)c2)c[nH]c1=O [Example 72, 1-(3-(1H-1,2,4-Triazol-1-yl)-5-(trifluoromethyl)phenyl)-3-(4-(5-ethoxy-6-oxo-1,6-dihydropyridin-3-yl)-2-fluorophenyl)urea hydrochloride] | < 0.1 µM
23 | CCOc1cc(-c2ncc(NC(=O)Nc3ccc(C(C)(C)CN(C)C)c(C(F)(F)F)c3)c(C)n2)c[nH]c1=O [Example 73, 1-(4-(1-(Dimethylamino)-2-methylpropan-2-yl)-3-(trifluoromethyl)phenyl)-3-(2-(5-ethoxy-6-oxo-1,6-dihydropyridin-3-yl)-4-methylpyrimidin-5-yl)urea dihydrochloride] | < 0.1 µM
24 | CCOc1cc(-c2ncc(NC(=O)Nc3cc(OCCN(C)C)cc(C(F)(F)F)c3)c(C)n2)c[nH]c1=O [Example 74, 1-(3-(2-(Dimethylamino)ethoxy)-5-(trifluoromethyl)phenyl)-3-(2-(5-ethoxy-6-oxo-1,6-dihydropyridin-3-yl)-4-methylpyrimidin-5-yl)urea dihydrochloride] | < 0.1 µM
25 | CC(C)(O)c1ccc(NC(=O)Nc2ccc(-c3c[nH]c(=O)c4ccccc34)cc2F)cc1C(F)(F)F [Example 75] | < 0.1 µM
26 | CCOc1cc(-c2ccc(NC(=O)Nc3ccc(CN(C)C)c(C(F)(F)F)c3)c(F)c2)c[nH]c1=O [Example 76] | < 0.1 µM
27 | CCOc1cc(-c2ccc(NC(=O)Nc3ccc(C4(CO)CC4)c(C(F)(F)F)c3)c(F)c2)c[nH]c1=O [Example 77] | < 0.1 µM
28 | CCOc1cc(-c2ccc(NC(=O)Nc3cc(C(F)(F)F)ccc3F)c(F)c2)c[nH]c1=O [Example 78] | < 0.1 µM

Reference: patent US10294236B2, “Compounds as rearranged during transfection (RET) inhibitors” (GLAXOSMITHKLINE INTELLECTUAL PROPERTY DEVELOPMENT LIMITED, priority 2014, dated 2019)
